Data on 6 molecules can be found in PMC10724246 (Nature Communications, 2023).

No end group written: not given here.

One assay has as its target T1, αWD40 domain (α-COPI) (Schizosaccharomyces pombe, UniProt Q96WV5).
T1 construct: strep-tag (C); made in house; host or cells: Expi293 cells
T1 sequence (Q96WV5 1-327 limits assumed): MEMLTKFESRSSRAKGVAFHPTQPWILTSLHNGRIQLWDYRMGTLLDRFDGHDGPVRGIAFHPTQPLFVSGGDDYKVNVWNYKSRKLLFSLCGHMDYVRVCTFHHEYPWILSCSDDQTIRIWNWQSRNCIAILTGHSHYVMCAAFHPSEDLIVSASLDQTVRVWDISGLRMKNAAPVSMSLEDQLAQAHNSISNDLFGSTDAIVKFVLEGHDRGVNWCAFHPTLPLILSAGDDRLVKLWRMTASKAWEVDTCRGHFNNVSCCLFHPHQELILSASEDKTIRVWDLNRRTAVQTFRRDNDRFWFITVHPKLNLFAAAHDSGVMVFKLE
The assay is described as follows: Biolayer interferometry (BLI) of S tail peptides with wild-type αWD40. The assay is classed as binding, S. pombe. As for the experimental part: Recombinant expression and purification of S. pombe αWD40 and S. cerevisiae β‘WD40 domains (both wild type and mutants) were carried out as described[43],[72],[75]. Briefly, αWD40 with a C-terminal strep-tag was expressed and purified from Expi293 cells using polyethyleneimine (PEI). The clarified cell lysate was subjected to affinity chromatography followed by size-exclusion chromatography (SEC) on a preparative grade Superdex-75 column.
BLI assays with biotinylated S peptides from Biomatik (USA) and purified coatomer WD40 domains were carried out as described. […] S peptides were immobilized on streptavidin (SA) biosensors (FortéBio, USA). Measurements were performed on the Octet RED96 system (FortéBio, USA). Data acquisition and data analysis were performed using Data Acquisition 11.1 suite and FortéBio Data Analysis 11.1 software suite respectively. All experiments were performed at 25 °C and 1000 rpm shake speed. Appropriate sensor and loading controls were applied.
In general terms: In BLI a coated tip is dipped into the sample, and binding shifts an interference pattern.

The next assay has as its system WD40. To be noted: peer review response; ref Dey et al Communications Biology 2022; cited from earlier work. From the text: page 26: dynamics/conformations of the tail. I see no need to perform experiments, but maybe this has been done (or other mutants been tested meanwhile)? Please comment at least! Response 3.21: We thank the reviewer for raising this point. We reported this BLI experiment in our previous publication, Dey et al Communications Biology 2022. […]

The target of a further assay is yeast β'WD40 domain. To be noted: published value, Supplementary Table S6; ref Ma & Goldberg, EMBO J 2013; cited from earlier work.
The target of the next assay is yeast αWD40 domain. To be noted: published value, Supplementary Table S6; ref Ma & Goldberg, EMBO J 2013; cited from earlier work.
For assay [1], the target named is T2, alpha-COP WD40 (Schizosaccharomyces pombe), Q96WV5.
T2 chain: T1 sequence (Q96WV5 1-327 limits assumed)
To be noted: modification not given.

Setting [2] is: immobilized biotinylated peptide, αWD40 analyte, pH 6.5, 25 °C.
The mark [3] stands for this setting: immobilized biotinylated peptide, αWD40 analyte, pH 7.0, 25 °C.

Turning to `CC(C)C[C@H](NC(=O)[C@H](CCCCN)NC(=O)[C@@H](NC(=O)CNC(=O)[C@H](CCCCN)NC(=O)[C@H](CC(C)C)NC(=O)[C@@H](NC(=O)[C@@H]1CCCN1C(=O)[C@H](CCC(=O)O)NC(=O)[C@H](CO)NC(=O)[C@H](CC(=O)O)NC(=O)[C@H](CC(=O)O)NC(=O)[C@H](CCC(=O)O)NC(=O)[C@H](CC(=O)O)NC(=O)[C@H](Cc1ccccc1)NC(=O)[C@H](CCCCN)NC(=O)[C@H](CS)NC(=O)[C@H](CS)NC(=O)CCCC[C@@H]1SC[C@@H]2NC(=O)N[C@@H]21)C(C)C)C(C)C)C(=O)N[C@@H](Cc1c[nH]cn1)C(=O)N[C@@H](Cc1ccc(O)cc1)C(=O)N[C@@H](CCC(=O)O)C(=O)O`, on αWD40 domain (α-COPI) (Equilibrium KD, immobilized biotinylated peptide, αWD40 analyte, pH 7.0, 25 °C), the Kd (in general, the free concentration of one partner at which half of the binding sites on the other are occupied at equilibrium, for simple one-to-one binding) stood at 0.1 ± 0.002 µM. On αWD40 domain (α-COPI) (setting [2]), the koff (commonly the first-order rate constant of dissociation) came out at 0.0037 ± 0.0002 s⁻¹ and the kon is recorded as 59.9 ± 1.3 10^3/Ms. Also, at αWD40 domain (α-COPI) (setting [3]), the koff came to 0.003 ± 0.0002 s⁻¹ and the kon is recorded as 60.8 ± 1.3 10^3/Ms.

With GVKLHYA, the “WD40 binding in BLI assays (in words)” value in the assay with WD40 is recorded as “modest enhancement”.

For the molecule GVKLHYE-NH2 [GVKLHYE (amidated)], on αWD40 domain (α-COPI) (setting [2]), the dissociation rate constant (koff) was 0.88 ± 0.02 s⁻¹ and the kon is given as 706.2 ± 56.3 10^3/Ms.

As for GVKLHYT (amidated), the “binding to αWD40 (in words)” value on αWD40 domain (α-COPI) (Fig. 2M, listed as amidated wild-type S heptapeptide) is listed as “Loss of αWD40 binding”.

With R-R-S-F-I-D-E-K-K-M-P (RRSFIDEKKMP), the values for the equilibrium dissociation constant (Kd) on yeast β'WD40 domain and on yeast αWD40 domain were 49 ± 2.2 µM and 64.5 ± 5.4 µM, respectively.

With GVKLHYT [Spike tail heptapeptide], the Kd in assay [1] was found to be 1.4 µM.
